In paper doi:10.1101/2025.09.30.679521v1, “Crystallographic characterisation and development of bi-substrate inhibitors of coronavirus nsp14 methyltransferase” (biorxiv, 2025):
Where two headings read alike, the source gives them in different places.

Key:
[1] = target: human RNMT (Homo sapiens, UniProt O43148); assay: RNMT methyltransferase assay (Gray et al.); assay type: biochemical
Description: RNMT methyltransferase assay (Gray et al.) on human RNMT

[2] = in vitro; parameters: mouse liver microsomal stability; conditions: liver microsomes; Mouse liver microsomes; read-out: Mouse liver Mic T1/2 / min
Description: We initiated our structure-activity relationship (SAR) studies by investigating various replacements for the benzothiazole group, compounds 2-17, Table 1. […] Relatively flat SAR is observed across this subset of compounds, indeed a 6,5 or 6,6 aromatic system with the appropriate connectivity as compound 1 display relatively similar potencies. […] In general, the mouse microsomal clearance was rather low for this set of molecules, with no significant instabilities introduced, with perhaps the exception of compound 4. With no significant advantages in either potency or mouse microsomal clearance (Table S2) identified for this subset, the benzothiazole was taken forward into subsequent SAR studies. Table 2. Enzymatic inhibition against SARS-CoV-2 nsp14, human RNMT, CHI-logD and mouse microsomal stability.

[3] = target: HCoV-NL63 nsp14 (Human coronavirus NL63, UniProt P0C6X5); assay: RapidFire MS methyltransferase assay; assay type: biochemical
Description: RapidFire MS methyltransferase assay on HCoV-NL63 nsp14

[4] = target: T1, HCoV-229E nsp14 (Human coronavirus 229E, UniProt P0C6X1); assay: RapidFire MS methyltransferase assay; assay type: biochemical
T1 construct: gene rep
Description: RapidFire MS methyltransferase assay on HCoV-229E nsp14

[5] = target: T2, SARS-CoV-2 nsp14 (Severe acute respiratory syndrome coronavirus 2, UniProt P0DTD1); assay: RapidFire MS methyltransferase assay; assay type: biochemical
T2 construct: gene rep
Description: RapidFire MS methyltransferase assay on SARS-CoV-2 nsp14

[6] = physchem
[7] = physchem; remark: listed apart in the source

T1 sequence (P0C6X1 5593-6110): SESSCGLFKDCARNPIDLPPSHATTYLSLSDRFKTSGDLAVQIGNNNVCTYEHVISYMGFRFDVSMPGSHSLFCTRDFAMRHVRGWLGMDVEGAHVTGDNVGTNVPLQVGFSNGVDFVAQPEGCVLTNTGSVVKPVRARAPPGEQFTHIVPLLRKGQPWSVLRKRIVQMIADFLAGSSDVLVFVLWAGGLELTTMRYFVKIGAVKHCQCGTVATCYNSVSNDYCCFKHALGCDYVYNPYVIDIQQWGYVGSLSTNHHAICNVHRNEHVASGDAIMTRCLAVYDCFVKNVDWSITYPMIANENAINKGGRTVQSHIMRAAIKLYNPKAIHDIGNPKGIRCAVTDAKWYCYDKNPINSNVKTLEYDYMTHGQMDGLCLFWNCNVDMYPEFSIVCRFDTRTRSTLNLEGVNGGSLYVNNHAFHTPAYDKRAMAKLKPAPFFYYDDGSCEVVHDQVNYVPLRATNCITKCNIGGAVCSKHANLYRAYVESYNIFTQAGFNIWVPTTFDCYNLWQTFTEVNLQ
Chain of HCoV-NL63 nsp14 (P0C6X5 5568-6085): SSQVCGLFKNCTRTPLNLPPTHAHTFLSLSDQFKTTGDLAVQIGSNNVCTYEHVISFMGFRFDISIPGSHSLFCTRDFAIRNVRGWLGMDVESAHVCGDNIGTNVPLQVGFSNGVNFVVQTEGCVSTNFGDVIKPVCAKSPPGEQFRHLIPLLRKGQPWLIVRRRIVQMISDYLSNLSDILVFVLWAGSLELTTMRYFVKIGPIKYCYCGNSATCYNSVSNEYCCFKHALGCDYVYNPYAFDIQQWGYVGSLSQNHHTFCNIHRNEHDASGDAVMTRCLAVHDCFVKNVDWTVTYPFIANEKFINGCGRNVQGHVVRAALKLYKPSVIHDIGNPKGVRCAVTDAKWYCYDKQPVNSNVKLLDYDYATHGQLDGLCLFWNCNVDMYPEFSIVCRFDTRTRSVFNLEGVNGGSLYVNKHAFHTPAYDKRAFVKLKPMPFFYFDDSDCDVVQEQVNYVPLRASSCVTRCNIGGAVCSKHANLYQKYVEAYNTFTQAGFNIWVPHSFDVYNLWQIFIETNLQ
Chain of human RNMT (O43148 whole entry): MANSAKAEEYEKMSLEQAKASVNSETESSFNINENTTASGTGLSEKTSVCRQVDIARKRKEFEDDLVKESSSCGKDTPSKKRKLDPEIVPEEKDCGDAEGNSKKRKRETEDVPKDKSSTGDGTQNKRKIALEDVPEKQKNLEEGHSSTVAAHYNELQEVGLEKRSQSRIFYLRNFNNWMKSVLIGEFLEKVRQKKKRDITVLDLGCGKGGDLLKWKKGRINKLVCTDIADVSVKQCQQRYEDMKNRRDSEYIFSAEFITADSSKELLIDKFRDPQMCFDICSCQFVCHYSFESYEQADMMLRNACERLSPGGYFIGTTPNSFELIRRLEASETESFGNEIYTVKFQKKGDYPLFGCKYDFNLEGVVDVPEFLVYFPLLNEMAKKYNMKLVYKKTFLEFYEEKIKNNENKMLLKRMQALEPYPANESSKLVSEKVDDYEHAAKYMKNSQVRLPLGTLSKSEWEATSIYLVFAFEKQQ

Row | SMILES | IC50 [1] | half-life [2] | IC50 ([3]; read-out: IC50) | IC50 ([4]; read-out: IC50) | IC50 ([5]; read-out: IC50) | logD [7] | further results
1 | Nc1ncnc2c1ncn2[C@@H]1O[C@H](CSc2nc3ccccc3s2)[C@@H](O)[C@H]1O [compound 1] | > 100000 nM | > 30 min | 190 ± 30 nM | 310 ± 8 nM | 420 ± 300 nM |  | logD [6]: 1.2
2 | Cc1ccc2nc(SC[C@H]3O[C@@H](n4cnc5c(N)ncnc54)[C@H](O)[C@@H]3O)sc2c1 [compound 2] | > 100000 nM | > 30 min |  |  |  |  | IC50 [3]: 110 ± 20 nM; IC50 [4]: 410 ± 80 nM; IC50 [5]: 260 ± 70 nM; logD [6]: 1.6
3 | Cc1ccc2sc(SC[C@H]3O[C@@H](n4cnc5c(N)ncnc54)[C@H](O)[C@@H]3O)nc2c1 [compound 3] | > 100000 nM | 25.7 min |  |  |  |  | IC50 [5]: 1200 ± 150 nM; logD [6]: 1.6
4 | CCCCCCSC[C@H]1O[C@@H](n2cnc3c(N)ncnc32)[C@H](O)[C@@H]1O [compound 4] | > 100000 nM | 13.2 min |  |  |  |  | IC50 [3]: 3300 ± 300 nM; IC50 [4]: 9000 ± 1400 nM; IC50 [5]: 6100 ± 1100 nM; logD [6]: 2
5 | CCNC(=O)NCCSC[C@H]1O[C@@H](n2cnc3c(N)ncnc32)[C@H](O)[C@@H]1O [compound 5] | > 100000 nM | > 30 min |  |  | 1900 ± 300 nM |  | logD [6]: -0.2
6 | Nc1ncnc2c1ncn2[C@@H]1O[C@H](CSc2ccc3ccccc3c2)[C@@H](O)[C@H]1O [compound 6] | > 100000 nM | 26.9 min | 230 ± 20 nM | 470 ± 60 nM | 310 ± 120 nM |  | logD [6]: 1.8
7 | Nc1ncnc2c1ncn2[C@@H]1O[C@H](CSc2ccc3ccccc3n2)[C@@H](O)[C@H]1O [compound 7] | > 100000 nM | > 30 min | 240 ± 80 nM | 550 ± 80 nM | 330 ± 90 nM |  | logD [6]: 1.3
8 | Nc1ncnc2c1ncn2[C@@H]1O[C@H](CSc2nccs2)[C@@H](O)[C@H]1O [compound 11, (2R,3R,4S,5S)-2-(6-Aminopurin-9-yl)-5-(thiazol-2-ylsulfanylmethyl) tetrahydrofuran-3,4-diol] |  | > 30 min |  |  |  |  | 
9 | Nc1ncnc2c1ncn2[C@@H]1O[C@H](CSc2nccs2)[C@@H](O)[C@H]1O [compound 11] | > 100000 nM |  | > 50000 nM | > 50000 nM | > 100000 nM |  | logD [6]: 0.3
10 | Nc1ncnc2c1ncn2[C@@H]1O[C@H](CSc2cccn3cncc23)[C@@H](O)[C@H]1O [compound 12] | 9300 nM |  | 9500 ± 2300 nM | 790 ± 60 nM | 15000 ± 12000 nM |  | logD [6]: 0.3
11 | Nc1ncnc2c1ncn2[C@@H]1O[C@H](CSc2nc3ccccc3o2)[C@@H](O)[C@H]1O [compound 14, (2R,3R,4S,5S)-2-(6-Amino-9H-purin-9-yl)-5-((benzo[d]oxazol-2-ylthio)methyl) tetrahydrofuran-3,4-diol] |  | > 30 min |  |  |  |  | 
12 | Nc1ncnc2c1ncn2[C@@H]1O[C@H](CSc2nc3ccccc3o2)[C@@H](O)[C@H]1O [compound 14] | > 100000 nM |  | 660 ± 400 nM | 950 ± 20 nM | 670 ± 20 nM | 1 | 
13 | Nc1ncnc2c1ncn2[C@@H]1O[C@H](CSc2nc3ccccc3[nH]2)[C@@H](O)[C@H]1O [compound 15, (2S,3S,4R,5R)-2-(((1H-Benzo[d]imidazol-2-yl)thio)methyl)-5-(6-amino-9H-purin-9-yl) tetrahydrofuran-3,4-diol] |  | > 30 min |  |  |  |  | 
14 | Nc1ncnc2c1ncn2[C@@H]1O[C@H](CSc2nc3ccccc3[nH]2)[C@@H](O)[C@H]1O [compound 15] | > 100000 nM |  | 480 ± 100 nM | 860 ± 200 nM | 590 ± 110 nM | 0.3 | 
15 | Nc1ncnc2c1ncn2[C@@H]1O[C@H](CSc2cccc3cn[nH]c23)[C@@H](O)[C@H]1O [compound 16] | > 100000 nM |  |  |  |  | 0.7 | IC50 ([5]; SAM and RNA cap substrate at KM (SAM 1.0 µM), unreliable (footnote: one IC50 measured > 100 µM)): 79000 ± 18000 nM
16 | Nc1ncnc2c1ncn2[C@@H]1O[C@H](CSc2ccn3cncc3c2)[C@@H](O)[C@H]1O [compound 17, (2R,3R,4S,5S)-2-(6-Aminopurin-9-yl)-5-(imidazo[1,5-a]pyridine-7-ylsulfanylmethyl) tetrahydrofuran-3,4-diol] |  | 11.1 min |  |  |  |  | 
17 | Nc1ncnc2c1ncn2[C@@H]1O[C@H](CSc2ccn3cncc3c2)[C@@H](O)[C@H]1O [compound 17] | 31100 nM |  | 6400 ± 1600 nM | 1100 ± 150 nM | 6900 ± 4600 nM | 0.1 | 

Row | SMILES | IC50 [1] | half-life [2] | IC50 ([3]; read-out: IC50) | IC50 ([4]; read-out: IC50) | IC50 ([5]; read-out: IC50) | logD [7] | further results
18 | CNc1ncnc2c1ncn2[C@@H]1O[C@H](CSc2nc3ccccc3s2)[C@@H](O)[C@H]1O [compound 18, (2S,3S,4R,5R)-2-(1,3-Benzothiazol-2-ylsulfanylmethyl)-5-[6-(methylamino)purin-9-yl]tetrahydrofuran-3,4-diol] |  | 19.7 min |  |  |  |  | 
19 | Nc1ncnc2c1ccn2[C@@H]1O[C@H](CSc2nc3ccccc3s2)[C@@H](O)[C@H]1O [compound 27] | > 100000 nM | > 30 min | 39 ± 6 nM | 41 ± 4 nM | 55 ± 20 nM | 1.6 | 
20 | Nc1ncnc2c1ccn2[C@@H]1C[C@H](CSc2nc3ccccc3s2)[C@@H](O)[C@H]1O [compound 28] |  | > 30 min |  |  |  | 1.8 | 
21 | N#Cc1cn([C@@H]2O[C@H](CSc3nc4ccccc4s3)[C@@H](O)[C@H]2O)c2ncnc(N)c12 [compound 29] | > 100000 nM | 12.1 min |  |  |  | 1.8 | IC50 [3]: 73 ± 26 nM; IC50 [4]: 100 ± 7 nM; IC50 [5]: 170 ± 20 nM
22 | C#Cc1cn([C@@H]2O[C@H](CSc3nc4ccccc4s3)[C@@H](O)[C@H]2O)c2ncnc(N)c12 [compound 30] | > 100000 nM | 10.1 min |  |  |  | 2 | IC50 [3]: 29 ± 9 nM; IC50 [4]: 33 ± 2 nM; IC50 [5]: 54 ± 10 nM
23 | CCc1cn([C@@H]2O[C@H](CSc3nc4ccccc4s3)[C@@H](O)[C@H]2O)c2ncnc(N)c12 [compound 31, (2R,3R,4S,5S)-2-(4-amino-5-ethyl-pyrrolo[2,3-d]pyrimidin-7-yl) -5-(1,3-benzothiazol-2-ylsulfanylmethyl)tetrahydrofuran-3,4-diol] |  | 3.9 min |  |  |  |  | 
24 | CCc1cn([C@@H]2O[C@H](CSc3nc4ccccc4s3)[C@@H](O)[C@H]2O)c2ncnc(N)c12 [compound 31] | > 100000 nM |  | 52 ± 9 nM | 120 ± 10 nM | 250 ± 200 nM | 2.1 | 
25 | Nc1ncnn2c([C@@H]3O[C@H](CSc4nc5ccccc5s4)[C@@H](O)[C@H]3O)ccc12 [compound 35, (2S,3R,4S,5S)-2-(4-Aminopyrrolo[2,1-f][1,2,4]triazin-7-yl)-5-(1,3-benzothiazol-2-ylsulfanylmethyl)tetrahydrofuran-3,4-diol] |  | > 30 min |  |  |  |  | 
26 | Nc1ncnn2c([C@@H]3O[C@H](CSc4nc5ccccc5s4)[C@@H](O)[C@H]3O)ccc12 [compound 35] |  |  | 100 ± 20 nM | 190 ± 40 nM | 370 ± 130 nM | 1.5 | 
27 | Cc1ccc2nc(SC[C@H]3O[C@@H](c4ccc5c(N)ncnn45)[C@H](O)[C@@H]3O)sc2c1 [compound 36, (2S,3R,4S,5S)-2-(4-Aminopyrrolo[2,1-f][1,2,4]triazin-7-yl)-5-[(6-methyl-1,3-benzothiazol-2-yl)sulfanylmethyl]tetrahydrofuran-3,4-diol] |  | 18 min |  |  |  |  | 
28 | Cc1ccc2nc(SC[C@H]3O[C@@H](c4ccc5c(N)ncnn45)[C@H](O)[C@@H]3O)sc2c1 [compound 36] |  |  |  |  | 340 ± 140 nM | 1.9 | 
29 | Nc1ncnn2c([C@@H]3O[C@H](CSc4ccc5ccccc5c4)[C@@H](O)[C@H]3O)ccc12 [compound 37, (2S,3R,4S,5S)-2-(4-Aminopyrrolo[2,1-f][1,2,4]triazin-7-yl)-5-(2-naphthylsulfanylmethyl) tetrahydrofuran-3,4-diol] |  | 13.6 min |  |  |  |  | 
30 | Nc1ncnn2c([C@@H]3O[C@H](CSc4ccc5ccccc5c4)[C@@H](O)[C@H]3O)ccc12 [compound 37] |  |  |  |  | 200 ± 70 nM | 2.2 | 
31 | Nc1ncnn2c([C@@H]3O[C@H](CSc4ccc5ccccc5n4)[C@@H](O)[C@H]3O)ccc12 [compound 38, (2S,3R,4S,5S)-2-(4-Aminopyrrolo[2,1-f][1,2,4]triazin-7-yl)-5-(2-quinolylsulfanylmethyl) tetrahydrofuran-3,4-diol] |  | > 30 min |  |  |  |  | 
32 | Nc1ncnn2c([C@@H]3O[C@H](CSc4ccc5ccccc5n4)[C@@H](O)[C@H]3O)ccc12 [compound 38] |  |  |  |  | 680 ± 110 nM | 1.7 | 
33 | Nc1ncnn2c([C@@H]3O[C@H](CCc4nc5ccccc5s4)[C@@H](O)[C@H]3O)ccc12 [compound 39, (2S,3R,4S,5R)-2-(4-Aminopyrrolo[2,1-f][1,2,4]triazin-7-yl)-5-[2-(1,3-benzothiazol-2-yl)ethyl]tetrahydrofuran-3,4-diol] |  | > 30 min |  |  |  |  | 
34 | Nc1ncnn2c([C@@H]3O[C@H](CCc4nc5ccccc5s4)[C@@H](O)[C@H]3O)ccc12 [compound 39] |  |  | 760 ± 300 nM | 2300 ± 50 nM | 500 ± 400 nM | 1.3 | 
